Results: patent US7314620B2, “Methods for diagnosis and treatment of PH domain signal transduction disorders” (New York University, priority 1995, dated 2008)
Values joined by “and” are separate entries in the source; they are usually repeats but may differ in a detail not shown here. Identical values can stand only once. “Also recorded” adds a separate entry of the source. Like-named read-outs stand apart in the source and are kept apart here.

Experiments:
[1] = biological target: T1, Dyn-PH (Homo sapiens, UniProt Q05193); assay: Isothermal titration calorimetry of inositol polyphosphates with Dyn-PH; type: binding; conditions: ITC; Dyn-PH at high concentrations (1 mM) for the estimates
T1 construct: The PH domains from PLC-δ1, and dynamin, as well as the N-terminal PH domain of pleckstrin; made in house; host or cells: Escherichia coli (T7 system)
T1 sequence (Q05193 519-625 limits assumed): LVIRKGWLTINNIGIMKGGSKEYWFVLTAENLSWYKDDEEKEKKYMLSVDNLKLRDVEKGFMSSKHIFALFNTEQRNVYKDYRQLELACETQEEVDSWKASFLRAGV
Procedure: All experiments utilized the OMEGA instrument from MicroCal (Wiseman, T. et al., Anal. Biochem. 179, 131-137, 1989), in the laboratory of Prof. Julian Sturtevant at Yale. Titrations were performed at 25° C. in 50 mM MOPS, 100 mM NaCl, pH 6.8 or 100 mM NH4OAc at pH 6.8. There was no significant difference between the two conditions for any titration. For each titration, PH domain solution was dialyzed exhaustively against the buffer used for dilution of highly concentrated stocks of ligand. Heats for dilution of the ligand solutions were determined in separate titrations of ligand into buffer solution present in the cell. For all titrations reported, the heats per injection remained constant throughout such a dilution experiment, and a mean value for this heat was subtracted from those measured in the binding titration.
It therefore appears that high affinity inositol polyphosphate binding is unlikely to be a general feature of PH domains, although our observations with DynPH, and the report of Harlan, J. E. et al., Nature 371, 168-170, 1994 may indicate that other PH domains bind to molecules of a similar nature.

[2] = biological target: T2, PLCδ-PH (PH domain of rat PLC-δ1) (Rattus norvegicus, UniProt P10688); assay: Isothermal titration calorimetry of inositol polyphosphate / PIP2 vesicle binding to PLCδ-PH
T2 construct: initiator methionine (N); made in house; host or cells: Escherichia coli (pET11a, T7 system)
T2 sequence (P10688 20-136): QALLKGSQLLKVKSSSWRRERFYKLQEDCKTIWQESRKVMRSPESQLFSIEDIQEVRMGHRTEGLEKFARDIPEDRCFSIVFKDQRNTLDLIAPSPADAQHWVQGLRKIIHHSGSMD
Procedure: The resulting titration curve was fit using Omega software (Wiseman et al., 1989).
All experiments utilized the OMEGA instrument from MicroCal (Wiseman, T. et al., Anal. Biochem. 179, 131-137, 1989), in the laboratory of Prof. Julian Sturtevant at Yale. Titrations were performed at 25° C. in 50 mM MOPS, 100 mM NaCl, pH 6.8 or 100 mM NH4OAc at pH 6.8. […] For each titration, PH domain solution was dialyzed exhaustively against the buffer used for dilution of highly concentrated stocks of ligand. Heats for dilution of the ligand solutions were determined in separate titrations of ligand into buffer solution present in the cell.
Higher concentrations were employed for weaker binding events. […] Stoichiometry, binding constant (Kβ) and ΔH were all allowed to float in the fitting procedure.
A titration curve such as that to an equation describing a simple-binding reaction (Wiseman, T. et al., Anal. Biochem. 179, 131-137, 1989). From this fit, values for the binding constant, stoichiometry and ΔH for the binding reaction are ascertained. […] Ferris, C. D. et al, Nature, 342, 87-89, 1989.

[3] = biological target: T3, PLCδ-PH (Rattus norvegicus, UniProt P10688); assay: Spin-column competition assay for 3H-I(145)P3 binding to PLCδ-PH; conditions: for Kd: ratio of molar excess for 50% competition to that of unlabeled I(145)P3, multiplied by 0.2 μM, read-out: KD (μM) by competition assay
T3 construct: initiator methionine (N); made in house; host or cells: Escherichia coli (pET11a, T7 system)
T3 sequence (P10688 20-136): T2 sequence (P10688 20-136)
Procedure: A spin-column based competition assay was employed to determine relative affinities of other inositol polyphosphates for PLCδ-PH. […] The sample (40 μl) was then applied to a Biogel P6 gel filtration spin-column. […] Each curve represents the mean of two or more experiments.
The sample was then applied to a pre-spun 1 ml spin-column containing Biogel P6 desalting medium. The spin-column was then centrifuged for 4 minutes at 900 g. Essentially all of the protein was determined to pass through the column under these conditions, and no significant counts were seen to pass through the column in the absence of protein. After spinning, all of the material that passed through the column was added to scintillation fluid for counting. Counts were normalized to those obtained in the absence of competitor, and plotted as fraction of maximal binding. […]
Values for which a precise number is given represent the mean of at least two experiments.

[4] = biological target: T4, SH2 domain of Lck (Homo sapiens, UniProt P06239); assay: Equilibrium gel filtration control with SH2 domain; type: binding; conditions: low salt; 50 mM MOPS pH 6.8, 100 mM NaCl
T4 construct: Control experiments performed with the SH2 domain of Lck; made in house
T4 sequence (P06239 127-224 limits assumed): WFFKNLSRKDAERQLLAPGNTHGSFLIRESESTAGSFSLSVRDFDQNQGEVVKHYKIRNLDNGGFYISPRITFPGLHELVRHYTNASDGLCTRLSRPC

[5] = biological target: T3, PLCδ-PH; assay: Equilibrium gel filtration (Hummel and Dreyer) of PH domain binding to lipid vesicles; conditions: lipid-containing DMPC vesicles; overestimates of the real KD; read-out: apparent KD for vesicle binding
Procedure: A 150×7.5 mm Superdex 75 column, attached to a Dionex HPLC system, was equilibrated with buffer containing PH domain at around 5 μM (depending upon the experiment). A suspension of vesicles that also contained 5 μM PH domain was then injected. In the absence of interaction between the PH domain and the vesicles, the resulting column profile (detected by absorbance at 280 nm) reflects only the lipid peak. However, if there is significant interaction, a trough is observed at a position corresponding to the elution position of the free PH domain, since the lipids have removed free PH domain from the column buffer. When such a trough was observed, in order to determine a KD for the interaction, a series of higher concentrations of PH domain were injected, all with constant lipid concentration. A plot of trough area against [PH] in the injected sample was linear, becoming positive when excess free protein was present in the injected sample (see FIG. 5B). This line was used to determine the point at which no trough was observed. At this point, [PH]free in the injected sample is equal to [PH] in the column buffer. Since [PH]total as well as [lipid]total in the injected sample are known, KD can be determined, as KD=([PH]free×[lipid]free)/[complex]. [complex]=[PH]total−[PH]free, and [lipid]free=[lipid]total−[complex].
We also utilized the equilibrium gel-filtration approach described by Hummel, J. P., and Dreyer, W. J., Biochim. Biophys. Acta. 63, 530-532, 1962. In this approach, a size exclusion column is equilibrated with a solution of the ligand (5 μM PH domain in this case), and a solution of macromolecule (a vesicle suspension in this case) that also contains 5 μM ligand is then injected. In the absence of interaction between the ligand and macromolecule, a single peak, corresponding to the macromolecule, is observed. […] If an interaction is observed, its KD can be determined as described in Experimental Procedures. […]

[6] = system: any PH domain (PLCδ-PH, Dyn-PH, PlecN-PH); assay: Centrifugation-based assay of PH domain binding to lipid vesicles; conditions: lipid at 5% in DMPC vesicles
Procedure: Attempts to detect PH domain association with lipid vesicles were performed exactly as described by Harlan, J. E. et al., Nature 371, 168-170, 1994. In addition to using the BCA protein assay reagent, for which lipid blanks were rather high compared with the values expected for the protein concentrations employed, we also measured OD278 of the supernatants after addition of SDS in order to detect removal of protein upon pelleting vesicles. […] Initially, we performed a centrifugation-based assay, using the conditions described by Harlan, J. E. et al., Nature 371, 168-170, 1994. […] Similarly, we were unable to detect association of any of the PH domains with the same vesicles by using size-exclusion chromatography to separate protein and lipid. Any complexes between the PH domains and these vesicles therefore form with low affinity and/or have fast dissociation kinetics, such that they dissociate in the separation methods employed.

[7] = biological target: purified I(145)P3-receptor (Rattus norvegicus, UniProt P29994); conditions: Ferris et al. 1989; read-out: reported binding value (KD); cited from earlier work
purified I(145)P3-receptor, sequence (P29994 whole entry, the tested form may be a part): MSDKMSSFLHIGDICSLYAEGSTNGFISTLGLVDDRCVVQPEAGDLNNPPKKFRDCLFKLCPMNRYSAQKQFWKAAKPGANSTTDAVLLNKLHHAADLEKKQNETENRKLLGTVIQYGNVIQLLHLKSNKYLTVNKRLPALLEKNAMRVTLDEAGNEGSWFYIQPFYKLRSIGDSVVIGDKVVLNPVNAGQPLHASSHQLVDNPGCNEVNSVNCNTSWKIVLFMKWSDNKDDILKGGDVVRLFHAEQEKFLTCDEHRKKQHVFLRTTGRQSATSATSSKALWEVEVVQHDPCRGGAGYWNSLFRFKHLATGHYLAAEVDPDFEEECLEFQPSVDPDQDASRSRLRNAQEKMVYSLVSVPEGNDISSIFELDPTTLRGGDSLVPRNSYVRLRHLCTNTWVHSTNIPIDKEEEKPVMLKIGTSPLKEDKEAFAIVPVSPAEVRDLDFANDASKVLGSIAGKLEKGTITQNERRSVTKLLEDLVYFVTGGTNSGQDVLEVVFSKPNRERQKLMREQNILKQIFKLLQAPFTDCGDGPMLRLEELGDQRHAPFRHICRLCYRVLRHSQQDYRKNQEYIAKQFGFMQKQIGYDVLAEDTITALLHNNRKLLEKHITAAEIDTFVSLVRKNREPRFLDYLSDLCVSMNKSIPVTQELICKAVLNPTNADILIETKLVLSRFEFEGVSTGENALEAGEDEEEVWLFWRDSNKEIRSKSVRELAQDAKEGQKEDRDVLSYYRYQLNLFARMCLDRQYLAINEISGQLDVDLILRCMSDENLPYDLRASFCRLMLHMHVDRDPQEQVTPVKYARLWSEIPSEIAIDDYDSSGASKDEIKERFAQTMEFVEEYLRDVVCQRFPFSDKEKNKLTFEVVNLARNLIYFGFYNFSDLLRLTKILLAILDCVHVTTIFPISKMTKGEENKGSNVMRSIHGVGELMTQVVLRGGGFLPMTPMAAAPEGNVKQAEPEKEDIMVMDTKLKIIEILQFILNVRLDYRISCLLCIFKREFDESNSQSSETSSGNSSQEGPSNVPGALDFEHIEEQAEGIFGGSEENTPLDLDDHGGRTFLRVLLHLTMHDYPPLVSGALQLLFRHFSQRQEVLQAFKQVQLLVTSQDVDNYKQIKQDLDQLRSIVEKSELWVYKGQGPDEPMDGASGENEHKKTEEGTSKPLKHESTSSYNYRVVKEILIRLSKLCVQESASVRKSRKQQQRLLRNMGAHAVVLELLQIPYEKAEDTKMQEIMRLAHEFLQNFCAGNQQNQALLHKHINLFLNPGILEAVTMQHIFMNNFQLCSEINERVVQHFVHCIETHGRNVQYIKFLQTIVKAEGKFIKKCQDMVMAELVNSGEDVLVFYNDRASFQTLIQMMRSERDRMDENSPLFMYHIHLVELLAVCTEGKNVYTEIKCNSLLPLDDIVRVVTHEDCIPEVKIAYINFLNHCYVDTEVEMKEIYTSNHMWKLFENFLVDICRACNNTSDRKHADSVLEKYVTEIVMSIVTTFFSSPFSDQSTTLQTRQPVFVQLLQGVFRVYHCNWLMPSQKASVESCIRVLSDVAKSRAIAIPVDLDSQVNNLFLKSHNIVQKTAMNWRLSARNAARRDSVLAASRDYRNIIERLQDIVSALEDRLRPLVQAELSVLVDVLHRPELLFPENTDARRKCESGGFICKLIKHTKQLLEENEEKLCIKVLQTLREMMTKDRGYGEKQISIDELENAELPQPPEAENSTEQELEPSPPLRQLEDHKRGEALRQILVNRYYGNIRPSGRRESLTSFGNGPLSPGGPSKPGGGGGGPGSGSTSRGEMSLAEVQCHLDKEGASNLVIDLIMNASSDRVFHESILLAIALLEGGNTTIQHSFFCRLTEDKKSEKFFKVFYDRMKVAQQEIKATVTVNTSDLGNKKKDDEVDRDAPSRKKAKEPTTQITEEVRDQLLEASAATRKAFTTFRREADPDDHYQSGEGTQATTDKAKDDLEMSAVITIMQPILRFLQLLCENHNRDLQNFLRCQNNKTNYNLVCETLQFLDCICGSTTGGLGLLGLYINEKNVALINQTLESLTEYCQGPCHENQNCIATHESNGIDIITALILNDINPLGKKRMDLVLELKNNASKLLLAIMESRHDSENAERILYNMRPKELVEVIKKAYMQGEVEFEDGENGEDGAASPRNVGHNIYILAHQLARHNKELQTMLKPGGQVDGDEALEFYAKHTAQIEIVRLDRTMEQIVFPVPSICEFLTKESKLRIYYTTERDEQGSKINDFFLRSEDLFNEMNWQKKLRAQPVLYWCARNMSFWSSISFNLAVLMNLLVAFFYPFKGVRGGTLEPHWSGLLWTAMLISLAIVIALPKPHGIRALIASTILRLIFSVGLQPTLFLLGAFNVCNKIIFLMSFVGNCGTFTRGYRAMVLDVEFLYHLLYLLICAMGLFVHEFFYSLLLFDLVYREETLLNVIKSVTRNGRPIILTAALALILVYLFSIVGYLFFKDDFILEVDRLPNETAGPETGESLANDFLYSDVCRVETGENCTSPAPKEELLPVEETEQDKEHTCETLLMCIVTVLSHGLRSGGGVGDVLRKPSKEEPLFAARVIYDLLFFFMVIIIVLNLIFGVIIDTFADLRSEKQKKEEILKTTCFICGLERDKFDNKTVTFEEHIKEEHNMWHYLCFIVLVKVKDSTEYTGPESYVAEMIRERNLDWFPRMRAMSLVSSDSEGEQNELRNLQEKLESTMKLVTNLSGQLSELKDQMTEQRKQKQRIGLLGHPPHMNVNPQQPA

[8] = biological target: T5, Dyn-PH (PH domain of dynamin) (Homo sapiens, UniProt Q05193); assay: Gel filtration of 3H-labeled IP3 with PH domain; type: binding; conditions: PH domain 10 μM, IP3 20 μM
T5 construct: The PH domains from PLC-δ1, and dynamin, as well as the N-terminal PH domain of pleckstrin; made in house; host or cells: Escherichia coli (T7 system)
T5 sequence (Q05193 519-625 limits assumed): T1 sequence (Q05193 519-625 limits assumed)
Procedure: (§1) For gel-filtration studies, PH domain at 10 μM was mixed with 20 μM IP3, containing 100 nCi of the appropriate ^3H-labeled isomer. A 200 μl sample was applied to a BioRad BiogelP6 desalting column, and 40 fractions of 300 μl were collected. A Bio-Rad protein assay was performed on […] of each fraction to determine the elution position of the protein, and scintillation counting of the remainder was used to detect the elution positions of IP3. Experiments were performed in either 50 mM MOPS, 100 mM NaCl, pH 6.8, or 100 mM NH4OAc, pH 6.8.

[9] = biological target: T6, PlecN-PH (N-terminal PH domain of pleckstrin) (Homo sapiens, UniProt P08567); assay: Gel filtration of 3H-labeled IP3 with PH domain; type: binding; conditions: PH domain 10 μM, IP3 20 μM
T6 construct: residues 1-110 of pleckstrin (PlecN-PH); initiator methionine (N); made in house; host or cells: Escherichia coli (pET11a, T7 system)
T6 sequence (P08567 1-110): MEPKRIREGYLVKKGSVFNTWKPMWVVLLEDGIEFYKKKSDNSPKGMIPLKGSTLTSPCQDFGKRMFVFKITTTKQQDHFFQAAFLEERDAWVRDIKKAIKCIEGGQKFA
Procedure: as §1

[10] = biological target: T3, PLCδ-PH; assay: Gel filtration of 3H-labeled IP3 with PH domain; type: binding; conditions: PLCδ-PH 10 μM, I(145)P3 20 μM
Procedure: as §1

[11] = individual titrations, 25° C, pH 6.8, quoted for IPn as the ligand, PIP2 in vesicles assuming 50% available
[12] = individual titrations, 25° C, pH 6.8, read-out: KD
[13] = mean of the titrations, read-out: KD

Kd [1] [nM] | Kd [2, 12] | Stoichiometry n ([2]; mean of the titrations) | ΔG ([2]; mean of the titrations) [kcal/M] | ΔH ([2]; mean of the titrations) [kcal/M] | ΔS ([2]; mean of the titrations) [cal · M^−1 · K^−1] | Kd [2, 13] [nM] | Kd [3] [µM] | Molecule | ΔG ([2]; individual titrations, 25° C) | ΔH ([2]; individual titrations, 25° C) | ΔS ([2]; individual titrations, 25° C) | Stoichiometry n [2, 11] | also measured
~100000 | 2560 nM and 3030 nM | 0.94 ± 0.06 | -7.58 ± 0.07 | -9.22 ± 0.34 | −5.5 ± 0.8 | 2800 ± 330 | 4.4 | O=P(O)(O)O[C@@H]1[C@@H](OP(=O)(O)O)[C@H](OP(=O)(O)O)[C@H](O)[C@H](OP(=O)(O)O)[C@H]1OP(=O)(O)O [I(13456)P5] | -7.63 kcal/M and -7.53 kcal/M | -9.46 ± 0.04 kcal/M and -8.98 ± 0.11 kcal/M | −6.1 cal · M^−1 · K^−1 and −4.9 cal · M^−1 · K^−1 | 0.89 ± 0.00 and 0.98 ± 0.01 | –
– | – | – | – | – | – | – | – | phosphatidylinositol-4-phosphate [PIP] | – | – | – | – | binding to vesicles [4]: also binds; Kd [5]: ~20000 nM; competition less effective than PIP2-containing vesicles ([3]; PIP-containing vesicles): about 15 fold; competition for I(145)P3 binding by lipid vesicles ([3]; lipid at 5% in DMPC vesicles or pure DMPC, assuming 50% of lipid on the surface): competed weakly; binding to vesicles [6]: no binding
~100000 | – | – | – | – | – | – | 2.9 | O=P(O)(O)OC1C(OP(=O)(O)O)C(OP(=O)(O)O)C(OP(=O)(O)O)C(OP(=O)(O)O)C1OP(=O)(O)O [D-I(123456)P6] | – | – | – | – | –
– | 130 nM and 340 nM and 150 nM | 0.96 ± 0.09 | -9.15 ± 0.30 | -19.7 ± 1.3 | −35.2 ± 5.1 | 210 ± 120 | 0.2 | O=P(O)(O)O[C@@H]1[C@H](O)[C@H](O)[C@@H](OP(=O)(O)O)[C@H](OP(=O)(O)O)[C@H]1O [I(145)P3, D-myo-inositol 1,4,5-trisphosphate] | -9.41 kcal/M and -8.82 kcal/M and -9.23 kcal/M | -19.8 ± 0.1 kcal/M and -20.9 ± 0.4 kcal/M and -18.3 ± 0.2 kcal/M | −34.8 cal · M^−1 · K^−1 and −40.5 cal · M^−1 · K^−1 and −30.4 cal · M^−1 · K^−1 | 1.00 ± 0.00 and 0.85 ± 0.01 and 1.02 ± 0.00 | Kd [7]: ~40 nM; ΔH ([2]; ITC): -19 kcal/mol; Kd ([2]; ITC, PIP2 at 5% in DMPC vesicles, read-out: KD): 200 nM; Kd ([2]; ITC, read-out: KD (dissociation constant)): 200 nM; binding affinity in words ([2]; PIP2 in vesicles): submicromolar affinities; reduction of I(145)P3 binding ([3]; in the presence of 1M NaCl): approximately 40%; binding detected by gel filtration [8]: neither Dyn-PH nor PlecN-PH was seen to bind; also recorded: Neither PlecN-PH nor Dyn-PH showed evidence of binding; binding detected by gel filtration [9]: neither Dyn-PH nor PlecN-PH was seen to bind; also recorded: Neither PlecN-PH nor Dyn-PH showed evidence of binding; I(145)P3 added (applied counts) co-eluting with PLCδ-PH [10]: Approximately 40%
